From paper PMC3548936 (ACS chemical biology, 2012) come the findings set out here.

The term EC50 denotes the concentration at which the effect is half-maximal.

Data set [1] has as its system VSV-G pseudotyped HIV particles (WT). Put plainly: microbe, parasite or virus in culture. Format: cell-based, HIV-1. Particulars: Human immunodeficiency virus 1, HOS, read-out: Antiviral IC50 ± SD (EC50), WT.
Data set [2] has as its system VSV-G pseudotyped HIV particles (IN Y143R). Format: cell-based, HIV-1. Particulars: read-out: Antiviral IC50 ± SD (EC50), Y143R.
Another data set is described as follows: in vitro. Particulars: human.

In the case of `Cc1nnc(C(=O)NC(C)(C)c2nc(C(=O)NCc3ccc(F)cc3)c(O)c(=O)n2C)o1` [RAL, raltegravir], the EC50 in data set [1] stood at 4 ± 2 nM; in data set [2], 210 ± 10 nM. The compound also showed a CC50 in the data set “in vitro” of over 100 µM.
